Source: the NIST ThermoML archive (doi:10.1016/j.jct.2004.03.002)
± gives the expanded uncertainty stated by the source.

Columns and labels:
[1] = Crystal
[2] = Molar enthalpy of transition or fusion; conditions: Crystal
[3] = molar enthalpy of vaporization or sublimation; conditions: Crystal

| SMILES | Triple point temperature ([1]; DTA) | Triple point temperature ([1]; heat flux calorimetry) | Molar enthalpy of transition or fusion ([2]; DSC) | Molar enthalpy of transition or fusion ([2]; heat flux calorimetry) | molar enthalpy ([3]; 277.3 K) | molar enthalpy ([3]; 278.2 K) | molar enthalpy ([3]; 279.2 K) | molar enthalpy ([3]; 298.15 K) | molar enthalpy ([3]; 297.3 K) | molar enthalpy ([3]; 297.4 K) |
| --- | --- | --- | --- | --- | --- | --- | --- | --- | --- | --- |
| O=C1C=CC(=O)C=C1 [1,4-benzoquinone] | 385.07 ± 0.68 K | 385.65 ± 0.24 K | 4.4 ± 0.108 kcal/mol | 4.39 ± 0.174 kcal/mol | 15.4 ± 0.598 kcal/mol | 15.1 ± 0.598 kcal/mol | 14.9 ± 0.598 kcal/mol | 15.9 ± 0.884 kcal/mol | – | – |
| CC1=C(C)C(=O)C(C)=C(C)C1=O [1,4-benzoquinone, tetramethyl-] | 384.12 ± 0.64 K | 384.84 ± 0.09 K | 4.4 ± 0.105 kcal/mol | 4.431 ± 0.0382 kcal/mol | – | – | – | 22.3 ± 1.05 kcal/mol | 22.3 ± 0.765 kcal/mol | 21.9 ± 0.765 kcal/mol |
